The values that follow come from patent publication US20040072839A1, “1-Phenylalkylpiperazines” (priority 2002, published 2004).

Each structure is given as a SMILES string.

The assay has as its target T1, human 5-HT1A-serotonergic receptor (Homo sapiens, UniProt P08908).
T1 construct: expressed in transfected cells; host or cells: HeLa (human), stably transfected; membrane preparation
T1 sequence (P08908 1-422): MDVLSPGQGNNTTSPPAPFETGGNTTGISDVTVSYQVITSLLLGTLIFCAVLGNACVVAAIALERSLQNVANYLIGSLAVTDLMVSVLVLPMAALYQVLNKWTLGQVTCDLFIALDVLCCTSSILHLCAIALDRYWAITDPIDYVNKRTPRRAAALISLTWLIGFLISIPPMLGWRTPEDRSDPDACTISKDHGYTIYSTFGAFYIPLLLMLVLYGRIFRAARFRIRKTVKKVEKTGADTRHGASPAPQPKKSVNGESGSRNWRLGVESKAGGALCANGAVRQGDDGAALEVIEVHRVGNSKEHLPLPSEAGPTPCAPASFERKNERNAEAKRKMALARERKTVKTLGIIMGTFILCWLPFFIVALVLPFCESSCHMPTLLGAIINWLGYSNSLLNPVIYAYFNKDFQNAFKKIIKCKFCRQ
In words: Radioligand binding to recombinant 5-HT1A receptors ([3H]8-OH-DPAT, HeLa cell membranes). The settings on record: 1 nM [3H]8-OH-DPAT; Ki from IC50 by Cheng & Prusoff; read-out: Ki, binding affinity for 5-HT1A receptors. As to the method: Genomic clone coding for the human 5-HT1A-serotonergic receptor was stably transfected in a human cell line (HeLa). HeLa cells were grown as monolayers in Dulbecco's modified Eagle medium (DMEM), containing 10% foetal bovine serum, gentamycin (0.1 mg/ml) and 5% carbon dioxide, at 37° C. The cells were detached from the growth flask at 95% confluence by a cell scraper and were lysed in cold 5 mM Tris and 5 mM EDTA buffer (pH 7.4). The homogenates were centrifuged at 40000×g×20 minutes and the pellets were resuspended in a small volume of cold 5 mM Tris and 5 mM EDTA buffer (pH 7.4) and immediately frozen and stored at −70° C. until use. On the day of experiment, the cell membranes were resuspended in incubation buffer: 50 mM Tris HCl (pH 7.4), 2.5 mM MgCl2, […] (Fargin et al., Nature 335, 358-360, 1988). The membranes were incubated in a final volume of 1 ml for 30 minutes at 30° C. with 1 nM [^3H]8-OH-DPAT, in the absence or presence of the test compounds. Non-specific binding was determined in the presence of 10 μM 5-HT. Incubation was stopped by addition of cold Tris-HC1 buffer and rapid filtration through a 0.2%-polyethyleneimine-pretreated Whatman-GF/B or Schleicher-&-Schuell-GF52 filter.
The affinities of the tested compounds were evaluated as inhibition of specific binding of the radioligand to 5-HT1A receptors (IC50) by using the non-linear curve-fitting program Allfit (De Lean et al., Am. J. Physiol. 235, E97-E102 (1978). The IC50 value was converted to an affinity constant (Ki) by the equation of Cheng & Prusoff (Cheng Y. C., Prusoff W. H., Biochem. Pharmacol. 22, 3099-3108 (1973)).
In the case of `CCCC(O)C(CCN1CCN(c2cccc3c2OCCO3)CC1)c1ccccc1` (centres unmarked) [Example 27], the Ki was determined as 1.09 nM.

On to `COC(=O)O[C@@H](C1CCCCC1)[C@H](CCN1CCN(c2ccccc2OC)CC1)c1ccccc1F` (racemic) [Example 46, (RS,SR) 1-[4-Cyclohexyl-3-(2-fluorophenyl)-4-methoxycarbonyloxybutyl]-4-(2-methoxyphenyl)piperazine], for which the Ki was 0.72 nM.

Take `N#Cc1ccccc1C(CCN1CCN(c2cccc3c2OCCO3)CC1)C(=O)C1CCCCC1` (centres unmarked) [Example 13, 1-[3-(2-Cyanophenyl)-4-cyclohexyl-4-oxobutyl]-4-[5-(2,3-dihydro-1,4-benzodioxinyl)]piperazine]: the Ki turned out to be 0.53 nM.

Consider `CC=CC(O)C(CCN1CCN(c2cccc3c2OCCO3)CC1)c1ccccc1` (centres unmarked) [Example 32, 1-[5-(2,3-Dihydro-1,4-benzodioxinyl)]-4-(4-hydroxy-3-phenylhept-5-enyl)piperazine], for which the Ki is 3.57 nM.

As to `CCC(O)C(CCN1CCN(c2cccc3c2OCCO3)CC1)c1ccccc1OC(F)(F)F` (centres unmarked) [Example 6, 1-[5-(2,3-Dihydro-1,4-benzodioxinyl)]-4-[4-hydroxy-3-(2-trifluoromethoxyphenyl)hexyl]piperazine], the Ki turned out to be 3.66 nM.

As for `C=CCOC(C1CCCCC1)C(CCN1CCN(c2cccc3c2OCCO3)CC1)c1ccccc1` (centres unmarked) [Example 21, 1-(4-Allyloxy-4-cyclohexyl-3-phenylbutyl)-4-[5-(2,3-dihydro-1,4-benzodioxinyl)]piperazine], the Ki is 0.77 nM.

As for `O=C(C1CCCCC1)C(CCN1CCN(c2cccc3[nH]ccc23)CC1)c1ccccc1OC(F)(F)F` (centres unmarked) [Example 44, 1-[4-Cyclohexyl-3-(2-trifluoromethoxyphenyl)-4-oxobutyl]-4-(4-indolyl)piperazine], the inhibition constant Ki was 1.14 nM.

For the compound `COc1cc(F)ccc1N1CCN(CCC(C(=O)C2CCCCC2)c2ccccc2C#N)CC1` (centres unmarked) [Example 15, 1-[3-(2-Cyanophenyl)-4-cyclohexyl-4-oxobutyl]-4-(4-fluoro-2-methoxyphenyl)piperazine], the Ki came out at 1.69 nM.

For `COC(C1CCCCC1)C(CCN1CCN(c2cccc3c2OCCO3)CC1)c1ccccc1` (centres unmarked) [Example 17, 1-(4-cyclohexyl-4-methoxy-3-phenylbutyl)-4-[5-(2,3-dihydro-1,4-benzodioxinyl)]piperazine], the Ki was determined as 0.64 nM.

Take `CN(C)C(=O)c1ccccc1C(CCN1CCN(c2cccc3c2OCCO3)CC1)C(O)C1CCCCC1` (centres unmarked) [Example 40, 1-[4-Cyclohexyl-3-(2-dimethylaminocarbonylphenyl)-4-hydroxybutyl]-4-[5-(2,3-dihydro-1,4-benzodioxinyl)]piperazine]: the Ki turned out to be 1.84 nM.

Regarding `C#CC(O)C(CCN1CCN(c2cccc3c2OCCO3)CC1)c1ccccc1` (centres unmarked) [Example 33, 1-[5-(2,3-Dihydro-1,4-benzodioxinyl)]-4-(4-hydroxy-3-phenylhex-5-ynyl)piperazine], the Ki was found to be 5.03 nM.

`CCCOC(CCC)C(CCN1CCN(c2cccc3c2OCCO3)CC1)c1ccccc1` (centres unmarked) [Example 12, 1-[5-(2,3-Dihydro-1,4-benzodioxinyl)]-4-[(4-propoxy-3-phenyl)heptyl]piperazine]: the Ki stood at 3.01 nM.

As to `C=CCC(O)C(CCN1CCN(c2cccc3c2OCCO3)CC1)c1ccccc1` (centres unmarked) [Example 34, 1-[5-(2,3-Dihydro-1,4-benzodioxinyl)]-4-(4-hydroxy-3-phenylhept-6-enyl)piperazine], the Ki was 1.67 nM.

As for `CCC(O)C(CCN1CCN(c2cccc3c2OCCO3)CC1)c1ccccc1` (centres unmarked) [Example 26, 1-[5-(2,3-Dihydro-1,4-benzodioxinyl)]-4-(4-hydroxy-3-phenyl)hexylpiperazine], the Ki is 2.62 nM.

For `CC(C)CC(O)C(CCN1CCN(c2cccc3c2OCCO3)CC1)c1ccccc1` (centres unmarked) [Example 36], the Ki amounted to 0.56 nM.

For the compound `CCCOC(C1CCCCC1)C(CCN1CCN(c2cccc3c2OCCO3)CC1)c1ccccc1` (centres unmarked) [Example 25, 1-(4-Cyclohexyl-3-phenyl-4-propoxybutyl)-4-[5-(2,3-dihydro-1,4-benzodioxinyl)]piperazine], the Ki turned out to be 1.18 nM.

`CCCC(OC)C(CCN1CCN(c2cccc3c2OCCO3)CC1)c1ccccc1` (centres unmarked) [Example 10, 1-[5-(2,3-Dihydro-1,4-benzodioxinyl)]-4-[(4-methoxy-3-phenyl)heptyl]piperazine]: the Ki turned out to be 1.68 nM.

For `CCOC(C1CCCCC1)C(CCN1CCN(c2ccc(F)cc2OC)CC1)c1ccccc1` (centres unmarked) [Example 20, 1-(4-Cyclohexyl-4-ethoxy-3-phenylbutyl)-4-(4-fluoro-2-methoxyphenyl)piperazine], the Ki stood at 3.19 nM.

Consider `CCOC(C1CCCCC1)C(CCN1CCN(c2cccc3c2OCCO3)CC1)c1ccccc1` (centres unmarked) [Example 19, 1-(4-Cyclohexyl-4-ethoxy-3-phenylbutyl)-4-[5-(2,3-dihydro-1,4-benzodioxinyl)]piperazine], for which the inhibition constant (Ki) is 0.69 nM.

Regarding `CC(C)C(O)C(CCN1CCN(c2cccc3c2OCCO3)CC1)c1ccccc1` (centres unmarked) [Example 29], the Ki is 1.08 nM.

`CC(C)=CC(O)C(CCN1CCN(c2cccc3c2OCCO3)CC1)c1ccccc1` (centres unmarked) [Example 35, 1-[5-(2,3-Dihydro-1,4-benzodioxinyl)]-4-(4-hydroxy-6-methyl-3-phenylhept-5-enyl)piperazine]: the Ki was 1.47 nM.

In the case of `CC(O)C(CCN1CCN(c2cccc3c2OCCO3)CC1)c1ccccc1OC(F)(F)F` (centres unmarked) [Example 5, 1-[5-(2,3-Dihydro-1,4-benzodioxinyl)]-4-[4-hydroxy-3-(2-trifluoromethoxyphenyl)pentyl]piperazine], the Ki was found to be 8.31 nM.

With `C=CC(OC)C(CCN1CCN(c2cccc3c2OCCO3)CC1)c1ccccc1OC(F)(F)F` (centres unmarked) [Example 9, 1-[5-(2,3-Dihydro-1,4-benzodioxinyl)]-4-[4-methoxy-3-(2-trifluoromethoxyphenyl)-5-hexenyl]piperazine], the Ki came out at 1.9 nM.

In the case of `C=CC(O)C(CCN1CCN(c2cccc3c2OCCO3)CC1)c1ccccc1` (centres unmarked) [Example 28, 1-[5-(2,3-Dihydro-1,4-benzodioxinyl)]-4-(4-hydroxy-3-phenylhex-5-enyl]piperazine], the Ki stood at 2.92 nM.

In the case of `OCC(CCN1CCN(c2cccc3c2OCCO3)CC1)c1ccccc1` (centres unmarked) [Example 37, 1-[5-(2,3-dihydro-1,4-benzodioxinyl)]-4-(4-hydroxy-3-phenylbutyl]piperazine], the Ki stood at 5.03 nM.

In the case of `COC(C)C(CCN1CCN(c2cccc3c2OCCO3)CC1)c1ccccc1` (centres unmarked) [Example 11, 1-[5-(2,3-Dihydro-1,4-benzodioxinyl)]-4-[(4-methoxy-3-phenyl)pentyl]piperazine], the Ki was found to be 3.65 nM.

On to `N#Cc1ccccc1C(CCN1CCN(c2cccc3c2OCCO3)CC1)C(O)C1CCCCC1` (racemic) [Example 14a, (RS)-1-[3-(2-Cyanophenyl)-4-cyclohexyl-4-hydroxybutyl]-4-[5-(2,3-dihydro-1,4-benzodioxinyl)]piperazine], for which the Ki stood at 0.878 nM.

With `CC(O)C(CCN1CCN(c2cccc3c2OCCO3)CC1)c1ccccc1` (centres unmarked) [Example 30], the Ki turned out to be 5.43 nM.

With `C#CCOC(C1CCCCC1)C(CCN1CCN(c2cccc3c2OCCO3)CC1)c1ccccc1` (centres unmarked) [Example 23, 1-(4-Cyclohexyl-3-phenyl-4-propargyloxybutyl)-4-[5-(2,3-dihydro-1,4-benzodioxinyl)]piperazine], the Ki stood at 0.63 nM.

On to `COc1cc(F)ccc1N1CCN(CCC(c2ccccc2C(=O)N(C)C)C(O)C2CCCCC2)CC1` (centres unmarked) [Example 42, 1-[4-Cyclohexyl-3-(2-dimethylaminocarbonylphenyl)-4-hydroxybutyl]-4-(4-fluoro-2-methoxyphenyl)piperazine], for which the Ki amounted to 4.87 nM.

For the compound `C#CCOC(C1CCCCC1)C(CCN1CCN(c2ccc(F)cc2OC)CC1)c1ccccc1` (centres unmarked) [Example 24, 1-(4-Cyclohexyl-3-phenyl-4-propargyloxybutyl)-4-(4-fluoro-2-methoxyphenyl)piperazine], the Ki turned out to be 0.64 nM.

On to `N#Cc1ccccc1[C@@H](CCN1CCN(c2cccc3c2OCCO3)CC1)[C@@H](O)C1CCCCC1` (racemic) [Example 14, (RS,SR)-1-[3-(2-Cyanophenyl)-4-cyclohexyl-4-hydroxybutyl]-4-[5-(2,3-dihydro-1,4-benzodioxinyl)]piperazine], for which the Ki was 0.401 nM.
